Results taken from patent US20230212571A1, “COMPOSITIONS AND METHODS FOR DELIVERING POLYNUCLEOTIDES” (NeOnc Technologies, Inc., priority 2020, published 2023).

Test system: AVM-BEC
Test: ELISA of AVM-BEC supernatants
Format: cell-based, human
Description: Human surgical specimens were obtained following written informed consent from patients in accordance with Declaration of Helsinki guidelines and the Institutional Review Board (HS-04B053), at Keck School of Medicine, USC. AVM-BECs were isolated from brain tissues of patients who underwent microsurgical AVM resection. Control BECs were isolated from the structurally normal […] of patients who underwent temporal lobectomy for intractable epilepsy. Endothelial cell (EC) isolation and culture were described^5,9. (Stapleton C J, Armstrong D L, Zidovetzki R, Liu C Y, Giannotta S L, Hofman F M. Thrombospondin-1 modulates the angiogenic phenotype of human cerebral arteriovenous malformation endothelial cells. Neurosurgery. 2011; 68(5):1342-1353) (Ferreira R, Santos T, Amar A, et al. Argonaute-2 promotes miR-18a entry in human brain endothelial cells. J Am Heart Assoc. 2014; 3(3):e000968) ECs were only used between passages 3-5. Experiments were performed under shear flow conditions (12 dyn/cm^2) to reproduce arterial flow^6. (Ferreira R, Santos T, Amar A, et al. MicroRNA-18a improves human cerebral arteriovenous malformation endothelial cell function. Stroke. 2014; 45(1):293-297). For hypoxic experiments, cells were cultured in a Galaxy 48R (Eppendorf) incubator at 3% O2. MicroRNAs were co-administered with Ago-2 to increase the cellular uptake of miR-18a^9 (Ferreira R, Santos T, Amar A, et al. Argonaute-2 promotes miR-18a entry in human brain endothelial cells. J Am Heart Assoc. 2014; 3(3):e000968) (FIG. 9). Methods regarding cell treatments and transfections were included in Data.
Small interfering RNA transfection was performed as previously described^5. Briefly, ECs were transfected with small interfering RNA (siRNA) against ID1 or PAI-1 (Thermo Fisher Scientific), or small interfering control (Santa Cruz Biotechnology) constructs using Lipofectamine RNAiMax (Thermo Fisher Scientific) per the manufacturer's instructions. Knockdown of ID1 or PAI-1 was confirmed by quantitative real-time polymerase chain reaction as described^6 (FIG. 19). The sequences of the forward and reverse primers for ID1 and PAI-1 were included in Table 2.
Plasmid constructs pcDNA3-ALK2^WT (Addgene #80870) and pcDNA3-ALK2^Q207D (Addgene #80871) were a gift from Aristidis Moustakas^7. (Meyer B, Schaller C, Frenkel C, Ebeling B, Schramm J. Distributions of local oxygen saturation and its response to changes of mean arterial blood pressure in the cerebral cortex adjacent to arteriovenous malformations. Stroke. 1999; 30(12):2623-2630) 10^4 AVM-BEC were seeded 24 h before transfection. The plasmid vector containing the 3′ untranslated region (3′UTR) of human BMP4, pRP [Exp]-Puro-CMV>Luciferase:{hBMP4_3′UTR}, was constructed and packaged by VectorBuilder. The vector ID is VB200205-1078zdv, which can be used to retrieve detailed information about the vector on vectorbuilder.com. Transient transfections were performed with Lipofectamine RNAiMax (Thermo Fisher Scientific) according to the manufacturer's instructions. After 4 h, medium was replaced by fresh medium containing microRNA.
MiR-18a (hsa-miR-18a-5p, 40 nM, Dharmacon) or a scramble microRNA (40 nM, Dharmacon) in nuclease-free water was added with argonaute 2 (Ago-2, 0.4 nM, Abcam) as the microRNA carrier and stabilizer^9. (Ferreira R, Santos T, Amar A, et al. Argonaute-2 promotes miR-18a entry in human brain endothelial cells. J Am Heart Assoc. 2014; 3(3):e000968). No transfection reagent was used with miR-18a or scramble microRNA treatments. Recombinant human TSP-1 (R&D Systems) stock solution was prepared in PBS and further diluted in culture medium to be used at a final concentration of 1000 ng/mL. Cells were treated during 24 h for mRNA and 48 h for protein expression studies. NEO100 (NeOnc Technologies) stock was prepared in DMSO and used immediately or stored at −20° C. […]

Substance: hsa-miR-18a-5p (UAGGUGCAUCUAGUGCAGAUAG; chemistry not given here; listed as Homo sapiens) [small non-coding RNA molecule involved in post-transcriptional regulation of gene expression; Dharmacon]
- VEGF levels (ELISA) (ALK2^WT-transfected AVM-BEC, P=0.0030): decrease VEGF levels
- levels of secreted TGF-β (ELISA) (AVM-BEC supernatants, P>0.9999): not significantly changed
- levels of secreted PAI-1 (AVM-BEC supernatants, normoxia, vs scramble microRNA): decreased
- levels of secreted VEGF (AVM-BEC supernatants, normoxia, decrease only reached significance with miR-18a): decreased
- VEGF levels (ELISA) (AVM-BEC transfected with constitutively active ALK2^Q207D, P>0.9999): unable to decrease VEGF levels
- levels of secreted VEGF (AVM-BEC transfected with siCTL, P=0.0007 vs scramble): decreased
- effects of miR-18a in the decrease of secreted VEGF levels (AVM-BEC transfected with siPAI-1): lost
- PAI-1 secretion (AVM-BEC, hypoxia 3% oxygen): reduction of PAI-1 secretion caused by miR-18a was still observed
